The structures appear in SMILES notation.

In the assay the target is T1, JAK3 (JH1 and JH2 domain) (Homo sapiens, UniProt P52333).
T1 sequence (P52333 521-1111 limits assumed): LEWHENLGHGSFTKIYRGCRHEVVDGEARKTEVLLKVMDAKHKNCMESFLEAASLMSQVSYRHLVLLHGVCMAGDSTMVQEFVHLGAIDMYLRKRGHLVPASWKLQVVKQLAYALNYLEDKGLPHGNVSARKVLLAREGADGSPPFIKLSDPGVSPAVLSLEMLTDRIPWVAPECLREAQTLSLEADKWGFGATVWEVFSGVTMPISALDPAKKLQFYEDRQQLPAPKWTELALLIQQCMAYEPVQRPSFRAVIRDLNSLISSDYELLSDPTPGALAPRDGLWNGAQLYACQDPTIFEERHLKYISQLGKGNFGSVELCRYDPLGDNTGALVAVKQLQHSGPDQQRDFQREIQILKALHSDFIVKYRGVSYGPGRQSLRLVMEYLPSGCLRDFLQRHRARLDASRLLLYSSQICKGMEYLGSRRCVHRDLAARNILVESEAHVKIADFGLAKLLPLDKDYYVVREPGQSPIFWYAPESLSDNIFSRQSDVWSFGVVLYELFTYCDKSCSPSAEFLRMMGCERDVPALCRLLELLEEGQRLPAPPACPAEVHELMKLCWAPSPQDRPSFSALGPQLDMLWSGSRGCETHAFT
The assay is described as follows: JAK3 Kinase Assay (ELISA of peptide substrate phosphorylation). It is filed as biochemical. Particulars: purified JAK3 enzyme, 10 μM ATP, biotinylated peptide substrate, 1 hour at room temperature. The method in brief: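 Sf21-baculovirus-expressed JAK3 (JH1+JH2), glutathione-bead purified, with biotinylated peptide substrate (in buffer containing 10 μM ATP) in HEPES pH 7.5/MgCl2/DTT, 1 h RT. Product was captured on Neutravidin, detected with HRP anti-phosphotyrosine (PY99)/TMB, OD 450/650 nm. Triplicate 16-point half-log series from 200 μM gave IC50; otherwise % inhibition at 1 μM.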
`CN1CCC(Nc2ccc3c(c2)c2c4c(c5c6ccccc6n6c5c2n3CC(O)C(O)C6)CNC4=O)CC1` (stereo not drawn) [Cpd 204, 3-[(1-methyl-piperidin-4-yl)amino]-12,13-(2,3-dihydroxy-butan-1,4-yl)-6,7,12,13-tetrahydro-5-oxo-5H-indolo[2,3-a]pyrrolo[3,4-c]carbazole]: the IC50 came out at 169 nM.

Consider `O=C(NCCc1ccccn1)OCC1(O)Cn2c3ccccc3c3c4c(c5c6ccccc6n(c5c32)C1)C(=O)NC4` (stereo not drawn) [Cpd 139], for which the IC50 is 160 nM. Next, `O=C1NC(=O)c2c1c1c3ccccc3n3c1c1c2c2ccccc2n1CC(OC(=O)N1CCN(c2ccncc2)CC1)C(O)C3` (stereo not drawn) [Cpd 96, 12,13-{2-[(4-pyridin-4-yl-piperazin-1-yl)carbonyloxy]-3-hydroxy-butan-1,4-yl}-12,13-dihydro-5,7-dioxo-6H-indolo[2,3-a]pyrrolo[3,4-c]carbazole]: 295 nM.

With `O=C1NCc2c1c1c3ccccc3n3c1c1c2c2ccccc2n1CCOCC3` [Cpd 29, 12,13-(3-oxa-pentan-1,5-yl)-6,7,12,13-tetrahydro-5-oxo-5H-indolo[2,3-a]pyrrolo[3,4-c]carbazole], the IC50 amounted to 14 nM. Next, `COCCNC(=O)OC1CCn2c3ccccc3c3c4c(c5c6ccccc6n(c5c32)C1)C(=O)NC4=O` (stereo not drawn) [Cpd 41, 12,13-{2-[(2-methoxy-ethyl)carbamoyloxy]-butan-1,4-yl}-12,13-dihydro-5,7-dioxo-6H-indolo[2,3-a]pyrrolo[3,4-c]carbazole]: 8 nM; `O=C1NC(=O)c2c1c1c3ccccc3n3c1c1c2c2ccccc2n1CC(O)(C(=O)O)C(O)C3` (stereo not drawn) [Cpd 13, 12,13-(2-carboxy-2,3-dihydroxy-butan-1,4-yl)-12,13-dihydro-5,7-dioxo-6H-indolo[2,3-a]pyrrolo[3,4-c]carbazole]: 9 nM. Next, `CC(C)OCc1ccc2c(c1)c1c3c(c4c5cc(Br)ccc5n5c4c1n2CC(CO)C5)C(=O)NC3` (stereo not drawn) [Cpd 209, 3-bromo-9-(isopropoxymethyl)-12,13-(2-hydroxymethyl-propan-1,3-yl)-6,7,12,13-tetrahydro-5-oxo-5H-indolo[2,3-a]pyrrolo[3,4-c]carbazole]: 70 nM; `O=C1NCc2c1c1c3cc(CN4CCOCC4)ccc3n3c1c1c2c2ccccc2n1CC(O)C(O)C3` (stereo not drawn) [Cpd 194, 3-(morpholin-4-ylmethyl)-12,13-(2,3-dihydroxy-butan-1,4-yl)-6,7,12,13-tetrahydro-5-oxo-5H-indolo[2,3-a]pyrrolo[3,4-c]carbazole]: 503 nM.

For `CN(C)C1CCN(C(=O)C2(O)Cn3c4ccccc4c4c5c(c6c7ccccc7n(c6c43)CC2O)C(=O)NC5=O)C1` (stereo not drawn) [Cpd 119, 12,13-{2-[(3-dimethylamino-pyrrolidin-1-yl)carbonyl]-2,3-dihydroxy-butan-1,4-yl}-12,13-dihydro-5,7-dioxo-6H-indolo[2,3-a]pyrrolo[3,4-c]carbazole], the IC50 is 15 nM. For the compound `O=C1NCc2c1c1c3ccccc3n3c1c1c2c2ccccc2n1CC(CO)C3` (stereo not drawn) [Cpd 23, 12,13-(2-hydroxymethyl-propan-1,3-yl)-6,7,12,13-tetrahydro-5-oxo-5H-indolo[2,3-a]pyrrolo[3,4-c]carbazole], the IC50 was 22 nM. Next, `O=C1NC(=O)c2c1c1c3ccccc3n3c1c1c2c2ccccc2n1CC(OC(=O)N1CCN(c2ccccc2)CC1)CC3` (stereo not drawn) [Cpd 64, 12,13-{2-[(4-phenyl-piperazin-1-yl)carbonyloxy]-butan-1,4-yl}-12,13-dihydro-5,7-dioxo-6H-indolo[2,3-a]pyrrolo[3,4-c]carbazole]: 36 nM; `O=C1NC(=O)c2c1c1c3ccccc3n3c1c1c2c2ccccc2n1CC(O)(C(=O)NC1CCOC1=O)C(O)C3` (stereo not drawn) [Cpd 122, 12,13-{2-[(2-oxo-tetrahydro-furan-3-yl)carbamoyl]-2,3-dihydroxy-butan-1,4-yl}-12,13-dihydro-5,7-dioxo-6H-indolo[2,3-a]pyrrolo[3,4-c]carbazole]: 63 nM. Next, `O=C1NC(=O)c2c1c1c3cc(-c4cccnc4)ccc3n3c1c1c2c2ccccc2n1CC(O)CC3` (stereo not drawn) [Cpd 32, 3-pyridin-3-yl-12,13-(2-hydroxy-butan-1,4-yl)-12,13-dihydro-5,7-dioxo-6H-indolo[2,3-a]pyrrolo[3,4-c]carbazole]: 35 nM; `O=C1NCc2c1c1c3ccccc3n3c1c1c2c2ccccc2n1CC(O)(COC(=O)N1CCc2ccccc2C1)C3` (stereo not drawn) [Cpd 147, 12,13-{2-hydroxy-2-[(1,2,3,4-tetrahydro-isoquinolin-2-yl)carbonyloxymethyl]-propan-1,3-yl}-6,7,12,13-tetrahydro-5-oxo-5H-indolo[2,3-a]pyrrolo[3,4-c]carbazole]: 28 nM. Next, `CN(C(=O)OC1CCn2c3ccccc3c3c4c(c5c6ccccc6n(c5c32)C1)C(=O)NC4=O)C1CCN(Cc2ccccc2)C1` (stereo not drawn) [Cpd 61, 12,13-{2-[N-methyl-N-(1-benzyl-pyrrolidin-3-yl)carbamoyloxy]-butan-1,4-yl}-12,13-dihydro-5,7-dioxo-6H-indolo[2,3-a]pyrrolo[3,4-c]carbazole]: 543 nM; `O=C1NCc2c1c1c3cc(/C=N/NC4=NCCN4)ccc3n3c1c1c2c2ccccc2n1CC(O)C(O)C3` (stereo not drawn) [Cpd 200, 3-[(4,5-dihydro-1H-imidazol-2-yl)hydrazomethylene]-12,13-(2,3-dihydroxy-butan-1,4-yl)-6,7,12,13-tetrahydro-5-oxo-5H-indolo[2,3-a]pyrrolo[3,4-c]carbazole]: 19 nM. For `O=C1NC(=O)c2c1c1c3ccccc3n3c1c1c2c2ccccc2n1CC(O)(C(=O)NC(CO)CO)C(O)C3` (stereo not drawn) [Cpd 118, 12,13-{2-[(1,3-hydroxy-isopropyl)carbamoyl]-2,3-dihydroxy-butan-1,4-yl}-12,13-dihydro-5,7-dioxo-6H-indolo[2,3-a]pyrrolo[3,4-c]carbazole], the IC50 was 36 nM. On to `CC(C)(C)OC(=O)NC1CCN(C(=O)OCC2(O)Cn3c4ccccc4c4c5c(c6c7ccccc7n(c6c43)C2)C(=O)NC5)CC1` (stereo not drawn) [Cpd 175, 12,13-{2-hydroxy-2-[(4-t-butoxyamido-piperidin-1-yl)carbonyloxymethyl]-propan-1,3-yl}-6,7,12,13-tetrahydro-5-oxo-5H-indolo[2,3-a]pyrrolo[3,4-c]carbazole], for which the half-maximal inhibitory concentration (IC50) is 244 nM. Next, `CC1(C)O[C@@H]2Cn3c4ccccc4c4c5c(c6c7ccccc7n(c6c43)C[C@H]2O1)C(=O)NC5` [Cpd 17, 12,13-[(4R,5R)-2,2-dimethyl-[1,3]dioxolo[4,5-b]butan-1,4-yl]-6,7,12,13-tetrahydro-5-oxo-5H-indolo[2,3-a]pyrrolo[3,4-c]carbazole]: 45 nM; `CN(C)CCCN1CCN(C(=O)OC2CCn3c4ccccc4c4c5c(c6c7ccccc7n(c6c43)C2)C(=O)NC5=O)CC1` (stereo not drawn) [Cpd 68, 12,13-(2-{[4-(3-dimethylamino-prop-1-yl)piperazin-1-yl]carbonyloxy}-butan-1,4-yl)-12,13-dihydro-5,7-dioxo-6H-indolo[2,3-a]pyrrolo[3,4-c]carbazole]: 433 nM; `COc1ccc(CCNC(=O)OC2CCn3c4ccccc4c4c5c(c6c7ccccc7n(c6c43)C2)C(=O)NC5=O)cc1OC` (stereo not drawn) [Cpd 49, 12,13-(2-{[2-(3,4-dimethoxy-phenyl)ethyl]carbamoyloxy}-butan-1,4-yl)-12,13-dihydro-5,7-dioxo-6H-indolo[2,3-a]pyrrolo[3,4-c]carbazole]: 39 nM.

The values are drawn from patent US20070249590A1, “Substituted indolo[2,3-a]pyrrolo[3,4-c]carbazole compounds useful in treating kinase disorders” (priority 2005, published 2007).
